Assays:
[1] = test system: HIV (primary M-tropic strain BL2); test: Trans-infection assay, 293 clone 1D4 stably expressing gp-340 pulsed with HIV, cocultured with PHA-blasts; type: cell-based, HIV-1; conditions: for mean P24, transmission by clone 1D4 in presence of peptide: average of 6 wells
Method: FIG. 1. 293 cells stably expressing cell surface gp-340 enhance the transfer of HIV to target cells. (A) 293 cells and a clone, 1D4, stably expressing gp-340, were stained for surface expression of gp-340 using rabbit polyclonal antibody 1527. Isotype control stained cells shown are 293 cells, but the 1D4 clone gave the same pattern. (B) Clone 1D4 and 293 cells were pulsed with increasing IU of HIV BL2 virus with or without a V3-derived peptide 6284 (10 μg/ml) that blocks Env-gp-340 binding, washed and exposed to PHA-blasts for 7 days. IUs were calculated using PHA-blasts as target cells in a TCID50 assay. Experiment was performed in replicates of 6 wells per viral addition and data is expressed as the percentage of the wells that became infected.
Parental or gp-340 expressing 293 cells, VK2E6E7, Endo1E6E7, Ect1E6E7, or AGS cells or 1 mm^3 pieces of ectocervix obtained as described below seeded in 96 well plates were incubated with various IU inputs of HIV, in 100 μl final volume for 2 h at 37° C. and then extensively washed. Additional inhibitors, peptides or antibodies, were added to cells 30 min prior to pulsing with virus and replaced after cells were washed. Plates were centrifuged at 1250 rpm for 7 minutes between each wash. […] Infection was monitored by measuring supernatant-associated p24 Gag protein content on day 7. TCID50 was calculated using the Reed-Münch formula.
Secreted gp-340 found at high levels in the oral cavity and also exists in a cell surface-associated form, although mRNA containing exon 55, which encodes the putative transmembrane domain, has not yet been detected. […] The gp-340 expressing cell lines were measured for their ability to transmit cell-free HIV to human PHA- and IL-2-stimulated PBMCs (PHA-blasts). […] Infection was monitored by p24 Gag protein content in the culture supernatant in each well and scored for the presence or absence of infection. The assay used 6 replicates of cells for each viral dilution and condition and calculated the number of wells that became infected at each amount of added virus. […]

HIV [2] = test: Direct HIV infection of PHA-blasts with peptide added before HIV; type: cell-based, HIV-1; conditions: peptide added to PHA-blasts prior to HIV
HIV strain BL2 = test: Trans-infection assay, AGS cells expressing endogenous gp-340 to T cell blasts; type: cell-based, HIV-1; conditions: peptide 10 μg/ml, 15 min preincubation, p24 7 days later
Method: FIG. 2 Transmission of HIV by AGS cells expressing endogenous gp-340 is inhibited by peptide corresponding to the V3 domain of Env. AGS cells were preincubated with gp-340-specific peptide 6283 or 6284, and control peptide 6220 (10 μg/ml) for 15 min and then pulsed with decreasing amounts of HIV strain BL2. After viral exposure, the cells were washed four times to remove unbound virus and cocultured with T cell blasts in the absence of peptides for 24 h. The T cell blasts were then moved to new wells and p24 Gag antigen content was measured 7 days later. IUs were calculated using PHA-blasts as target cells in a TCID50 assay. Experiment was performed in replicates of six per virus concentration. Data is expressed as the percentage of the 6 wells in which the cells became infected for each virus concentration.
(§1) Parental or gp-340 expressing 293 cells, VK2E6E7, Endo1E6E7, Ect1E6E7, or AGS cells or 1 mm^3 pieces of ectocervix obtained as described below seeded in 96 well plates were incubated with various IU inputs of HIV, in 100 μl final volume for 2 h at 37° C. and then extensively washed. Additional inhibitors, peptides or antibodies, were added to cells 30 min prior to pulsing with virus and replaced after cells were washed. Plates were centrifuged at 1250 rpm for 7 minutes between each wash. After viral incubation and washing, PHA-blasts were cocultured with the pulsed cells for 7 days at 37° C. with IL-2. Infection was monitored by measuring supernatant-associated p24 Gag protein content on day 7. TCID50 was calculated using the Reed-Münch formula.
To examine native expressed gp-340, the gastrointestinal carcinoma cell line AGS, which is expresses gp-340, was analyzed for its ability to transmit HIV in vitro. AGS cells enhanced transmission of HIV to target CD4^+ T cells. Cells were infected in 50% of the wells when 0.08 infectious units (IU) of virus were pulsed per well. This represented a 6-fold enhancement in the viral infectivity by gp-340. Peptides 6283 and 6284, derived from the proposed gp-340 binding site in Env, abolished the enhancement in infectivity. […]

gp-340 = gp-340 (Homo sapiens, UniProt Q9UGM3); conditions: previously shown/demonstrated; cited from earlier work
Sequence of gp-340 (Q9UGM3 20-2413): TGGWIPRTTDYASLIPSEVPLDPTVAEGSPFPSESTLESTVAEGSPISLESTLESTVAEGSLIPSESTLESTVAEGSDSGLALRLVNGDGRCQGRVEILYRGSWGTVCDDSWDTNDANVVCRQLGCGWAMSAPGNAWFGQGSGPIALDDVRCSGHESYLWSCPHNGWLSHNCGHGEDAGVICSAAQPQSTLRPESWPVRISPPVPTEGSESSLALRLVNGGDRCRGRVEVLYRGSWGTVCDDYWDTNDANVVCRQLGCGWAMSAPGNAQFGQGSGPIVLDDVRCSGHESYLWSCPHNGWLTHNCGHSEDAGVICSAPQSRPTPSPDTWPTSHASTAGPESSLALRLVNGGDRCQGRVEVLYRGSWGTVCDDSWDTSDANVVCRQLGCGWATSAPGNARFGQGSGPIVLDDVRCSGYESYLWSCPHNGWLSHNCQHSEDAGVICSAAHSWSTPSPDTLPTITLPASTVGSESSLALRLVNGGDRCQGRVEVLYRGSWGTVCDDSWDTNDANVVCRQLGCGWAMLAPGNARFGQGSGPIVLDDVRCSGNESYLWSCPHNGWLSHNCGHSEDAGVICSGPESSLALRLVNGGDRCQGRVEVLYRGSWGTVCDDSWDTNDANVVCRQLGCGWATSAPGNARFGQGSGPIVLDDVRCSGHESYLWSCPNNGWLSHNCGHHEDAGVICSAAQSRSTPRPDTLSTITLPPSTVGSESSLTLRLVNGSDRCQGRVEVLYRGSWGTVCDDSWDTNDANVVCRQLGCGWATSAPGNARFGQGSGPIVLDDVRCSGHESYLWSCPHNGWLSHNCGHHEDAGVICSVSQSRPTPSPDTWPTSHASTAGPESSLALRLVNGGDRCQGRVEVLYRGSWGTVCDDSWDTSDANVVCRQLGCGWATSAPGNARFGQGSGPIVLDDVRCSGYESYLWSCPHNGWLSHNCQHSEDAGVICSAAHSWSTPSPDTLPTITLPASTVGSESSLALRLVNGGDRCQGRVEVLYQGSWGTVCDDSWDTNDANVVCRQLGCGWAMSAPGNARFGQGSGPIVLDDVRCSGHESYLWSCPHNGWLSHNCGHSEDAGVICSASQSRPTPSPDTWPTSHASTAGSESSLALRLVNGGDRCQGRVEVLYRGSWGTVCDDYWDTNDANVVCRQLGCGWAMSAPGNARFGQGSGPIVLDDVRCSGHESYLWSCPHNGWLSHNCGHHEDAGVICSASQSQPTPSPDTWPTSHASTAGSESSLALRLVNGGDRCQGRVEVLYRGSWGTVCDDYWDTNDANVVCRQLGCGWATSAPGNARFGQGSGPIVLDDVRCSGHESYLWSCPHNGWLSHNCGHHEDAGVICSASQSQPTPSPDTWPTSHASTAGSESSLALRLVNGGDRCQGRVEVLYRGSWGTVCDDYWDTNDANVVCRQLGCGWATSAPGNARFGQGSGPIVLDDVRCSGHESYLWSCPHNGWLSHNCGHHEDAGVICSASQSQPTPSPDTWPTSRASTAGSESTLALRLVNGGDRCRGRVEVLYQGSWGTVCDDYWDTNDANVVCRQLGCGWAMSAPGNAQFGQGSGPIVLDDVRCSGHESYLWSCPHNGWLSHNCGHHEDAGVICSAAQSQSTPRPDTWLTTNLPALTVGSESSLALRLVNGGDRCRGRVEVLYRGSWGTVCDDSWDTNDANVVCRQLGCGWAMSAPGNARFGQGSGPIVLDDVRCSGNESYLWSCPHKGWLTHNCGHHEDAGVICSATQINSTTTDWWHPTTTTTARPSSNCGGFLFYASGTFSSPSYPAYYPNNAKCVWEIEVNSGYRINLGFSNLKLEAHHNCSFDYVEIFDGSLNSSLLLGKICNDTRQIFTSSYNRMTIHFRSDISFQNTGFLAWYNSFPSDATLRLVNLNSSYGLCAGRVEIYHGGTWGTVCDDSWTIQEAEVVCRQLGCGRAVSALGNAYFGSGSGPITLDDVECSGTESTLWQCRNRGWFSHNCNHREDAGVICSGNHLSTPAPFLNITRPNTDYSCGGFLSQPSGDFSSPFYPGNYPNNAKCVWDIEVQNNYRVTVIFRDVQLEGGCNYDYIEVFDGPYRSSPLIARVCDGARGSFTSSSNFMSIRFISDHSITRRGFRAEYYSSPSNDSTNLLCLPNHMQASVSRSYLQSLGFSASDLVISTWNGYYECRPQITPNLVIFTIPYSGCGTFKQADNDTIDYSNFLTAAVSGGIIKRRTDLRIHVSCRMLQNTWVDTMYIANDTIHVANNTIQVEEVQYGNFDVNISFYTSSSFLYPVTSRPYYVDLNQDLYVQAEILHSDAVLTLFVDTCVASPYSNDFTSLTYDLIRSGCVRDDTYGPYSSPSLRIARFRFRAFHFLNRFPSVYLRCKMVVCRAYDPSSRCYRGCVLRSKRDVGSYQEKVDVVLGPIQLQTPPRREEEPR

HIV-1 BL2 virus = test: Trans-infection assay, vaginal epithelial cells (VK2E6E7) to PHA-blasts; type: cell-based; conditions: pre-incubation with antibody, or peptide at time of viral pulsing; p24 after 7 days
Method: Vaginal epithelial cells (VK2E6E7) were incubated with isotype control or gp-340-specific antibodies 116 or DAPA and then pulsed with HIV-1 BL2 virus. After extensive washing, PHA-blasts were added for 24 h and then moved to new plates without VK2E6E7 cells. After 7 days, p24 Gag protein content in the supernatant was measured. Samples were run in triplicate and standard error of the mean is given.
as §1
Cell lines were pulsed with decreasing amounts of HIV Ba-L, washed and had target cells immediately added or added after 2 or 4 days of culture. […]

HIV [3] = test: Trans-infection by genital tract epithelial cell lines; type: cell-based; conditions: treatment completely removes syndecan expression

For CTRPNYNKRKRIHIG [peptide 6284], the “mean P24, transmission by clone 1D4 in presence of peptide” value ([1]; 0.11 IU viral input, without peptide 184) was 7, the “mean P24, transmission by clone 1D4 in presence of peptide” value ([1]; 0.33 IU viral input, without peptide 239) was 7 and the “enhancement of HIV trans-infection (TCID50) by gp-340-expressing cells” value ([1]; gp-340-expressing 293 cells pre-incubated with peptide 10 μg/ml, HIV BL2, PHA-blasts 7 days) was “abolished”. The “infection of PHA-blasts” value (HIV [2]) was “did not affect”, the “enhancement in infectivity (transmission of HIV by AGS cells)” value (“enhancement in infectivity” below) (HIV strain BL2) was “abolished” and the “Env binding to gp-340” value (gp-340) was “block”.

In the case of DAPA, the “ability of VK2E6E7 cells to bind and transmit HIV to PHA-blasts” value (HIV-1 BL2 virus) is given as “markedly decreased” and the “Env binding to gp-340” value (gp-340) is given as “inhibit”.

For “KEATTTLFCASDAKA (Human) [peptide 6220, control peptide derived from another part of Env, reference compound]”, the “enhancement in infectivity” value (HIV strain BL2) was “had no impact”.

For VQINCTRPNYNKRKR [peptide 6283], the “enhancement in infectivity” value (HIV strain BL2) was “abolished”.

B1: heparinase: enzyme treatment that completely removes syndecan expression (protein, UniProt Q59289 25-659, looked up)
Heparin-sulfate lyase: QSSSITRKDFDHINLEYSGLEKVNKAVAAGNYDDAAKALLAYYREKSKAREPDFSNAEKPADIRQPIDKVTREMADKALVHQFQPHKGYGYFDYGKDINWQMWPVKDNEVRWQLHRVKWWQAMALVYHATGDEKYAREWVYQYSDWARKNPLGLSQDNDKFVWRPLEVSDRVQSLPPTFSLFVNSPAFTPAFLMEFLNSYHQQADYLSTHYAEQGNHRLFEAQRNLFAGVSFPEFKDSPRWRQTGISVLNTEIKKQVYADGMQFELSPIYHVAAIDIFLKAYGSAKRVNLEKEFPQSYVQTVENMIMALISISLPDYNTPMFGDSWITDKNFRMAQFASWARVFPANQAIKYFATDGKQGKAPNFLSKALSNAGFYTFRSGWDKNATVMVLKASPPGEFHAQPDNGTFELFIKGRNFTPDAGVFVYSGDEAIMKLRNWYRQTRIHSTLTLDNQNMVITKARQNKWETGNNLDVLTYTNPSYPNLDHQRSVLFINKKYFLVIDRAIGEATGNLGVHWQLKEDSNPVFDKTKNRVYTTYRDGNNLMIQSLNADRTSLNEEEGKVSYVYNKELKRPAFVFEKPKKNAGTQNFVSIVYPYDGQKAPEISIRENKGNDFEKGKLNLTLTINGKQQLVLVP
For B1, the “trans-infection after heparinase treatment” value (HIV [3]) was “no effect”.
